By IC50 is commonly meant the concentration at which inhibition is half-maximal.

The source of these data is BindingDB's records for doi:10.1074/jbc.M113.507525 (Western University, 2013).

Some results are limits rather than exact numbers.

What all share (assay): SelectScreen Biochemical Kinase Assay
Test [1] deals with DNA-dependent protein kinase catalytic subunit (Mus musculus, UniProt P97313). The protocol: (§1) Biochemical in vitro lipid kinase assays were performed by the SelectScreen biochemical kinase assay service (Invitrogen Ltd.). A stock solution of GS-9820 was prepared in DMSO at a concentration of 10 mM. Ten-point kinase inhibitory activities were measured over a concentration range (5 to 10^4 nM) with ATP at a concentration consistent with the Km of each of the enzymes.

In test [2] the target is Phosphatidylinositol 4,5-bisphosphate 3-kinase catalytic subunit alpha isoform (Mus musculus, UniProt P42337). How it is done: as §1
For test [3], the target named is Phosphatidylinositol 4,5-bisphosphate 3-kinase catalytic subunit beta isoform (Mus musculus, UniProt Q8BTI9). The protocol: as §1
Test [4] has as its target T1, Phosphatidylinositol 4,5-bisphosphate 3-kinase catalytic subunit delta isoform (Mus musculus, UniProt O35904).
T1 sequence (O35904 whole entry): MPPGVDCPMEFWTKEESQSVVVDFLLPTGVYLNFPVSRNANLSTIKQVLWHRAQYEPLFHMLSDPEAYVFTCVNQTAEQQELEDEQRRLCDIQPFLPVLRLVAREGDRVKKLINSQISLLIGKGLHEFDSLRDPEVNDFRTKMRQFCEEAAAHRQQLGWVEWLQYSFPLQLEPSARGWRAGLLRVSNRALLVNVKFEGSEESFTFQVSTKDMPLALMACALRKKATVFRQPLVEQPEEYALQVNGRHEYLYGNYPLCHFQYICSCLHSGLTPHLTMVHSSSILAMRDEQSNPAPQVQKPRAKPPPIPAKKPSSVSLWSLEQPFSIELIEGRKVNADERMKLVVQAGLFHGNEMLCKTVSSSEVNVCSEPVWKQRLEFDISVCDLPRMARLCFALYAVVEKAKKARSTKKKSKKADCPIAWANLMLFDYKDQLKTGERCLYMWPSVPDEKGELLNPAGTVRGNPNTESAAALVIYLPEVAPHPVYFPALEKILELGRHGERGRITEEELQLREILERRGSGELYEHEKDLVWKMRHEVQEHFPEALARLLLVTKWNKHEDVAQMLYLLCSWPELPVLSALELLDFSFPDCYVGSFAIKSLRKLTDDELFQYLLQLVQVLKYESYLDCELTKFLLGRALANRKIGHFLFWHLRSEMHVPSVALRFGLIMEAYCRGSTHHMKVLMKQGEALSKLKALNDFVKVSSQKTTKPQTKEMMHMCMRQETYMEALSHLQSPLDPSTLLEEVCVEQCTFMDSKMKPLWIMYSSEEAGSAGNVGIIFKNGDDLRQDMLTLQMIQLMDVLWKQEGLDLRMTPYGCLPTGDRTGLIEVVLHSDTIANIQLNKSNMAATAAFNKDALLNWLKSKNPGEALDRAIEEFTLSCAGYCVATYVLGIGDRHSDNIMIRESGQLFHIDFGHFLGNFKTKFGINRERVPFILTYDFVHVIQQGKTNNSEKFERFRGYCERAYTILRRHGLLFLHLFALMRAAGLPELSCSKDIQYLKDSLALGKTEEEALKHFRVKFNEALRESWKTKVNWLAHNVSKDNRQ
The protocol: as §1

Test [5] has as its target Phosphatidylinositol 4,5-bisphosphate 3-kinase catalytic subunit gamma isoform (Mus musculus, UniProt Q9JHG7). How it is done:
as §1

Test [6] has as its target Phosphatidylinositol 4-phosphate 5-kinase type-1 alpha (Mus musculus, UniProt P70182). The protocol: as §1
Test [7] deals with Phosphatidylinositol 4-phosphate 5-kinase type-1 beta (Mus musculus, UniProt P70181). How it is done: as §1
Sequence of Phosphatidylinositol 4-phosphate 5-kinase type-1 beta (P70181 whole entry): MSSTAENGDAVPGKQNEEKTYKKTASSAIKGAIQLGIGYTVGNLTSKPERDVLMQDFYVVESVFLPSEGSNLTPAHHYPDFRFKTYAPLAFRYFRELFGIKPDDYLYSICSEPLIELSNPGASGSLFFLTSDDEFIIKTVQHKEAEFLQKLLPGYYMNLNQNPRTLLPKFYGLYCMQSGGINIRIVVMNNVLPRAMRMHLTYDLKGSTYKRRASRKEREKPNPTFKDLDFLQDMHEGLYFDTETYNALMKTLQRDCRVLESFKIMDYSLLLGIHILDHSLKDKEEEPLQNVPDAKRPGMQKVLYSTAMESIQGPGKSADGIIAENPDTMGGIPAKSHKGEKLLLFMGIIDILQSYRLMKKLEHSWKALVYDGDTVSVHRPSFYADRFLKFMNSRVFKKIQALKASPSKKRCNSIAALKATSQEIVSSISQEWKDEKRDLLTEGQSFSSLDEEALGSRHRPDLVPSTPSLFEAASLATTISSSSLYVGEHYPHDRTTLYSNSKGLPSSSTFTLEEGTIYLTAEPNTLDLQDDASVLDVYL

Sequence of Phosphatidylinositol 4-phosphate 5-kinase type-1 alpha (P70182 whole entry): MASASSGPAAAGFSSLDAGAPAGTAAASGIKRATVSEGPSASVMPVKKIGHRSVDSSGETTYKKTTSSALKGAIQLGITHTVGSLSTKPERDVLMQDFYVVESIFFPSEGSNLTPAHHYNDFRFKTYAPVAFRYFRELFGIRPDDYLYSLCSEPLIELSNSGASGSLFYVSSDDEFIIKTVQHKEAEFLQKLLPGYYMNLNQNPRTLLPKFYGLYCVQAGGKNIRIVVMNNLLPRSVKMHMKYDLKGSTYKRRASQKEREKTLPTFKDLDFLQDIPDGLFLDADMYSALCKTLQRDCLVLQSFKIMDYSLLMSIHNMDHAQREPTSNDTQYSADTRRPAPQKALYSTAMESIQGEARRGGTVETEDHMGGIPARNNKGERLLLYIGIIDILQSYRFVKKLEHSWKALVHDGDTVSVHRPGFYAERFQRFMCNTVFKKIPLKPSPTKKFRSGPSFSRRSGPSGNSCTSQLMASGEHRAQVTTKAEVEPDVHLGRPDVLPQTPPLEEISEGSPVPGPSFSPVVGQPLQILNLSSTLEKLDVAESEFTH
Sequence of Phosphatidylinositol 4,5-bisphosphate 3-kinase catalytic subunit alpha isoform (P42337 whole entry, canonical isoform): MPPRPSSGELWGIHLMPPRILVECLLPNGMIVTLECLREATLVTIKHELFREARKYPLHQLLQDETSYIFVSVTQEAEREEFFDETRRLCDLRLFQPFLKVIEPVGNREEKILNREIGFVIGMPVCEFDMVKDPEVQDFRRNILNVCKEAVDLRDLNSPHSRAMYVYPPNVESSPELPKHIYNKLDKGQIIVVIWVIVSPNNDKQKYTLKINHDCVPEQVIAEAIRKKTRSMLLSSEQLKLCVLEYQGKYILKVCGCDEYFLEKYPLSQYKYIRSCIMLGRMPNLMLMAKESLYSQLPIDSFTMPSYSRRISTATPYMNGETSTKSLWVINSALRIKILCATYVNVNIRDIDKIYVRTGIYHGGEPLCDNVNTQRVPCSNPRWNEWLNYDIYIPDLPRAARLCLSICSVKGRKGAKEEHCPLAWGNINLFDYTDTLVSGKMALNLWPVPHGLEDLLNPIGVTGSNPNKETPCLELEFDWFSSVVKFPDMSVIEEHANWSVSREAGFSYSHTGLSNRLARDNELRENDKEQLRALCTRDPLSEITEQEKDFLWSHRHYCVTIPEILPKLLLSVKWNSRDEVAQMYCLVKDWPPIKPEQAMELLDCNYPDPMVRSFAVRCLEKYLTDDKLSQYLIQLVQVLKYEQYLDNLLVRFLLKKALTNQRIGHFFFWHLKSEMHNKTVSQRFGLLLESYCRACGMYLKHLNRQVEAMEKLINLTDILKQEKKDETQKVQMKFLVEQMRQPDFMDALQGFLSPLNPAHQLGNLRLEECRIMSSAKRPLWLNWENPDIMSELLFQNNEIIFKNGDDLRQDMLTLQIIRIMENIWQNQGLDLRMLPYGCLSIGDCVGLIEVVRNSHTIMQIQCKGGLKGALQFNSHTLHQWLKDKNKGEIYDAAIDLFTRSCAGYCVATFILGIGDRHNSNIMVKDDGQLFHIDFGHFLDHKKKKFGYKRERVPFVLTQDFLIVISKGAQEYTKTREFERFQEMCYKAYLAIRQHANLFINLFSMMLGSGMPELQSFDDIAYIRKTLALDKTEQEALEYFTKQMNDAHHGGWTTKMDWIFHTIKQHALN
Sequence of Phosphatidylinositol 4,5-bisphosphate 3-kinase catalytic subunit beta isoform (Q8BTI9 whole entry, canonical isoform): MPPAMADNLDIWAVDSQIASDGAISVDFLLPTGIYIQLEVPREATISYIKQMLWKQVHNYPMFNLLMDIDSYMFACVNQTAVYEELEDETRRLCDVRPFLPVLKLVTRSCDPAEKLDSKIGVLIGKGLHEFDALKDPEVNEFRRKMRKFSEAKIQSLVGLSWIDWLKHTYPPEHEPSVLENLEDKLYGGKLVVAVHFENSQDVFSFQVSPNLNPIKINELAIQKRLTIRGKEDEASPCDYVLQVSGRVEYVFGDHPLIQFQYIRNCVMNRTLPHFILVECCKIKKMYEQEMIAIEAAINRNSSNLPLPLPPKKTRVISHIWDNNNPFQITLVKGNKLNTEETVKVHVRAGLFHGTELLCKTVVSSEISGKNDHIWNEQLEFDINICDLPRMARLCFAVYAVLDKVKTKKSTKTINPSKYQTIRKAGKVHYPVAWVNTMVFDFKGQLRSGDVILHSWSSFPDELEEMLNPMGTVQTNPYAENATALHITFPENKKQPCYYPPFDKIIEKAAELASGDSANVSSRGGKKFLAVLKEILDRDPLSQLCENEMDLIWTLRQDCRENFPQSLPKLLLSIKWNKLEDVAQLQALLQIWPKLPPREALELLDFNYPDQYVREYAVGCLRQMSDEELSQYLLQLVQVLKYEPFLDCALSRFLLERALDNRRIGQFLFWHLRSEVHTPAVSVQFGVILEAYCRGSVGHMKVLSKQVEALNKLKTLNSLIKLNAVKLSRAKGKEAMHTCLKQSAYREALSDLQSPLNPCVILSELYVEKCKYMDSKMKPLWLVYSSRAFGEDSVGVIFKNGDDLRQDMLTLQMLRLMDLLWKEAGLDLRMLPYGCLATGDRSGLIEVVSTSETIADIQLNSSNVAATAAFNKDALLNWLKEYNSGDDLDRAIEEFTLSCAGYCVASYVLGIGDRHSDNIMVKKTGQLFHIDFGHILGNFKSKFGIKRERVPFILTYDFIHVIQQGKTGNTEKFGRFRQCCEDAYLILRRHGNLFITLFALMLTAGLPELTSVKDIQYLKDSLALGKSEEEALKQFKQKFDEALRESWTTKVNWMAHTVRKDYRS
Sequence of Phosphatidylinositol 4,5-bisphosphate 3-kinase catalytic subunit gamma isoform (Q9JHG7 whole entry, canonical isoform): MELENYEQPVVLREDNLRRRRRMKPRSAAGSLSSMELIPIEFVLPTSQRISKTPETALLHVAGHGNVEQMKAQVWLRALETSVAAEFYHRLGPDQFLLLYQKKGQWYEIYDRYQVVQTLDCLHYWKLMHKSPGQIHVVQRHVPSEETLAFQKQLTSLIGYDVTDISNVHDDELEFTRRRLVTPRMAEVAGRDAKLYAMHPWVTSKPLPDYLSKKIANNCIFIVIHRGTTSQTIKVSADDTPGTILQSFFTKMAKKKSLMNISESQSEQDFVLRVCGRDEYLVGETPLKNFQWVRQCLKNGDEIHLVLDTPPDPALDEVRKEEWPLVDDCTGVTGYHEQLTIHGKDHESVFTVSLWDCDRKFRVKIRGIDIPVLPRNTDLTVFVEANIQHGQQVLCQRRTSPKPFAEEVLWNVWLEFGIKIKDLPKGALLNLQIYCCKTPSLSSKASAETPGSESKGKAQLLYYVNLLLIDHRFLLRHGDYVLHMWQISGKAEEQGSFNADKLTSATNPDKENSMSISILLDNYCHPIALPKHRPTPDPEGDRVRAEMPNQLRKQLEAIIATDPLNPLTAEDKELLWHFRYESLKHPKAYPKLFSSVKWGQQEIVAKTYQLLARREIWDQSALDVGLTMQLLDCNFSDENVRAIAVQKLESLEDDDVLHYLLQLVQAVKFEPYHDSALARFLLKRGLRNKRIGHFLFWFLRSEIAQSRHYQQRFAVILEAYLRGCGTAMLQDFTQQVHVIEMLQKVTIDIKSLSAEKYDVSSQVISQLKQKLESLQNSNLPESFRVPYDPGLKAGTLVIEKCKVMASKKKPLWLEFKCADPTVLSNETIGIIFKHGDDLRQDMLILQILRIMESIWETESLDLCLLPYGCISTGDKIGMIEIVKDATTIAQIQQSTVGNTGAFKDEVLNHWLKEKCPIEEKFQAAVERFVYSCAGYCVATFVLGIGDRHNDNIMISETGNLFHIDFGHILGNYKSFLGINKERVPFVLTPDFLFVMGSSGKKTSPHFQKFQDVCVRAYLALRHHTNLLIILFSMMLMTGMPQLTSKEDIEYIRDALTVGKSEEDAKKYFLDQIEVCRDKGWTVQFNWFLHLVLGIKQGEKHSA

As to `C[C@H](Nc1ncnc2[nH]cnc12)c1nc2ccc(F)cc2c(=O)n1-c1ccccc1` [GS-9820], the IC50 is 18.7 µM in test [1]; 5.44 µM in test [2]; 3.38 µM in test [3]; 0.0127 µM in test [4]; 1.39 µM in test [5]; more than 10 µM in test [6]. Moreover, in test [7], the IC50 was more than 10 µM.
